Test results taken from patent publication EP0253314B1, “Peptidase and process for producing the same” (SUNTORY LIMITED, priority 1986, dated 1988).
Non-standard residues stand in square brackets, D forms with d. Residues, ends and D or L forms follow the SMILES beside them. *: point of attachment. Sta = CC(C)C[C@H](N)[C@@H](O)CC(=O)O; Isovaleryl = CC(C)CC(=O)*

Experiments:
[1] = tested on: peptidase of the present invention; format: biochemical, Saccharomyces cerevisiae; design: key to Inhibition: - indicates that the reaction was not inhibited; conditions: for Inhibition: pH 4
[2] = tested on: enzyme of the present invention; assay: Substrate specificity of enzyme (percentage of cleaved substrate by HPLC); format: biochemical, Saccharomyces cerevisiae; conditions: 24 hours at 30°C in 0.05 M acetate buffer (pH 4.0); DEAE-Sephacel fraction eluted with 0.2 M NaCl
α-MF = α-MF produced at a level of several µg/ml; reacted for 24 hours; prior-art culture activity; cited from earlier work

| Compound | Response to inhibitor (inhibition of the enzyme, in words) [1] | Inhibition [1] | % Cleavage [2] | α-MF cleaved (α-MF) |
| --- | --- | --- | --- | --- |
| O=C(O)CN(CCN(CC(=O)O)CC(=O)O)CC(=O)O [EDTA] | not inhibited | - |  |  |
| CC(=O)N[C@@H](CC(C)C)C(=O)N[C@@H](CC(C)C)C(=O)N[C@H](C=O)CCCNC(=N)N [Leupeptin, leupeptin] | inhibited neither | - |  |  |
| O=C(O)c1cc[c]([Hg][Cl])cc1 [PCMB, p-chloro-mercuribenzoic acid] | inhibited neither | - |  |  |
| O=S(=O)(F)Cc1ccccc1 [PMSF, phenylmethylsulfonyl fluoride] | inhibited neither | - |  |  |
| CC(C)CC(=O)N[C@H](C(=O)N[C@H](C(=O)N[C@@H](CC(C)C)[C@@H](O)CC(=O)N[C@@H](C)C(=O)N[C@@H](CC(C)C)[C@@H](O)CC(=O)O)C(C)C)C(C)C [Pepstatin, pepstatin] (Isovaleryl-VV[Sta]A[Sta]-OH) | not inhibited | - |  |  |
| Cc1ccc(S(=O)(=O)N[C@@H](CCCCN)C(=O)CCl)cc1 [TLCK, tosyl - L - lysine chloromethyl ketone] | inhibited neither | - |  |  |
| O=C(O)CI [monoiodoacetic acid] | inhibited neither | -* |  |  |
| C[C@@H](O)[C@H](N)C(=O)N[C@@H](CCCCN)C(=O)N1CCC[C@H]1C(=O)N[C@@H](CCCNC(=N)N)C(=O)O [tuftsin, Thr - Lys - Pro - Arg] (H-TKPR-OH) |  |  | 0% |  |
| Cys - Tyr - Ile - Gln - Asn - Cys - Pro - Leu - Gly - NH2 [oxytocin] |  |  | 0% |  |
| Ser - Glu - Glu - Pro - Pro - Ile - Ser - Leu - Asp - Leu - Thr - Phe - His - Leu - Leu - Arg - Glu - Val - Leu - Glu - Met - Ala - Arg - Ala - Glu - Gln - Leu - Ala - Gln - Gln - Ala - His - Ser - Asn - Arg - Lys - Leu - Met - Glu - Ile - Ile - NH2 [CRF] |  |  | 0% |  |
| Ser - Leu - Arg - Arg - Ser - Ser - Cys - Phe - Gly - Gly - Arg - Met - Asp - Arg - Ile - Gly - Ala - Gln - Ser - Gly - Leu - Gly - Cys - Asn - Ser - Phe - Arg - Tyr [α-hamp] |  |  | 0% |  |
| Trp - Gly - Gly - Phe - Leu - Arg - Arg - Ile - Arg - Pro - Lys - Leu - Lys - Trp - Asp - Asn - Gln [dynorphin] |  |  | not less than 90% |  |
| Trp - His - Trp - Leu - Gln - Leu - Lys - Pro - Gly - Gln - Pro - Met - Tyr [α-MF] |  |  | not less than 90% | about 50% |
| Tyr - Gly - Gly - Phe - Met - Thr - Ser - Glu - Lys - Ser - Gln - Thr - Pro - Leu - Val - Thr - Leu [β-endorphin] |  |  | 0% |  |
| pGlu - Leu - Tyr - Glu - Asn - Lys - Pro - Arg - Arg - Pro - Tyr - Ile - Leu [neurotensin] |  |  | 0% |  |
